Holding throughout (format): cell-based
In one assay the test system is IL-6 (THP-1 cells). The experiment in a line: IL-6 inhibition in LPS-stimulated THP-1 monocytes (HTRF). The note with it: Homo sapiens, IL-6 HTRF; for pEC50: 500 ng/mL LPS, Table 6; for inhibition at 10 µM: LPS, Table 6, read-out: percent inhibition at 10 μM (given in parentheses for EC50 >10 μM). In a few lines: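 THP-1 cells in 1% FBS pre-incubated 2 h with compound (10-point 1:3 series from 10 μM, 0.1% DMSO), then stimulated with 500 ng/mL LPS for 22 h at 37 °C. IL-6 measured by HTRF 665/620 ratio, normalized to DMSO; EC50 by four-parameter fit, or % inhibition at 10 μM when EC50 >10 μM.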
On the technique in general: In TR-FRET formats the signal depends on donor and acceptor labels being close together.

Assay [1] has as its system primary human mesenchymal stem cells (hMSCs). In words: Induction of chondrogenesis in human mesenchymal stem cells (nodule staining with Rhodamine B / Nile Red). The note with it: for Emax: TGF-β3 (10 ng/mL) as positive control, read-out: Max. Activity as % TGF-β3 activity; for EC50: concentration required to induce 50% levels of chondrogenesis vs TGF-β3, read-out: Conc (nM) of 50% TGF-β3 activity. The method, then: Representative compounds were screened using primary human mesenchymal stem cells (hMSCs) to determine their ability to induce chondrogenesis (process by which cartilage is developed).
Human Mesenchymal Stem Cell Culture: Primary human mesenchymal stem cells (hMSCs) were purchased from Lonza (Walkersville, Md.) and expanded in Mesenchymal Stem Cell Growth Media (Lonza). Cells between passage 3 and 6 were used for the experiments.
Compound Screening: Each compound was dissolved in DMSO as a 10 mM stock and used to prepare compound source plates. For the 96 well assay, serial dilution (1:3, 6-point dose-response curves from 2700 nM to 10 nM) and compound transfer was performed using the ECHO 550 (Labcyte, Sunnyvale, Calif.) into 96-well clear bottom assay plates (Greiner Bio-One) with appropriate DMSO backfill for a final DMSO concentration of 0.03%. hMSCs were plated at 20,000 cells/well in 250 μL/well Incomplete Chondrogenic Induction Medium (Lonza; DMEM, dexamethasone, ascorbate, insulin-transferrin-selenium [ITS supplement], gentamycin-amphotericin [GA-1000], sodium pyruvate, proline and L-glutamine). TGF-β3 (10 ng/mL) was used as a positive control for differentiation while negative control wells were treated with 75 nL DMSO for normalization and calculating EC50 values. For the 384 well assay, serial dilution (1:3, 8-point dose-response curves from 5000 nM to 2.2 nM) and compound transfer was performed using the ECHO 550 (Labcyte, Sunnyvale, Calif.) into 384-well clear bottom assay plates (Greiner Bio-One) with appropriate DMSO backfill for a final DMSO concentration of 0.03%. hMSCs were plated at 8,000 cells/well in 80 μL/well Incomplete Chondrogenic Induction Medium (Lonza; DMEM, dexamethasone, ascorbate, insulin-transferrin-selenium [ITS supplement], gentamycin-amphotericin [GA-1000], sodium pyruvate, proline and L-glutamine). TGF-β3 (10 ng/mL) was used as a positive control for differentiation while negative control wells were treated with 25 nL DMSO for normalization and calculating EC50 values. Cells were incubated at 37° C. and 5% CO2 for 6 days. To image chondrogenic nodules, the cells were fixed using 4% formaldehyde (Electron Microscopy Sciences), and stained with 2 μg/mL Rhodamine B (Sigma-Aldrich) and 20 μM Nile Red (Sigma-Aldrich) [Johnson K., et. al, A Stem Cell-Based Approach to Cartilage Repair, Science, (2012), 336(6082), 717-721]. The nodules imaged (25 images per well for 96 well plates and 9 images per well for 384 well plates at 10× magnification) by excitation at 531 nm and emission at 625 nm and quantified using the CellInsight CX5 (Thermo Scientific). Area of nodules in each well was normalized to the average of 3 DMSO treated wells on the same plate using Excel (Microsoft Inc.). The normalized averages (fold change over DMSO) of 2 or 3 replicate wells for each compound concentration were calculated. Due to solubility limitations of some of the compounds, curve fitting was incomplete leading to inaccurate EC50 determinations.
Using TGF-β3 as a positive control, the concentration of representative compounds required to induce 50% levels of chondrogenesis is reported. In addition, the maximum activity of each compound and the respective dose that each compound reached maximum chondrogenesis activity is reported.

In another assay the test system is SW480 colon cancer cells. In words: Cell viability assay (CellTiter-Blue) in SW480 cells. The note with it: Homo sapiens, 96 h, four days; for pEC50: CellTiter-Blue, 10 μM to 0.0045 μM; for inhibition at 10 µM: read-out: percent inhibition at 10 μM (given for EC50 of >10 μM). The gist of the method: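 4-day exposure, 37 °C/5% CO2; ~2×10^3 SW480 cells/well; 8-pt 1:3 curve, 10–0.0045 μM, duplicates vs DMSO controls. Resazurin→resorufin fluorescence readout, ~3 h. EC50 by nonlinear fit; if >10 μM, % inhibition at 10 μM reported.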

pEC50: −log10 of the molar value.

One may read the pEC50 as −log10 of the EC50, conventionally taken in molar units. Low readings indicate a large EC50, high ones a small EC50. Usually inhibition stands for the percentage by which the read-out fell short of the control. With `CC(C)(C)C(=O)Nc1cncc(-c2ccc3[nH]nc(-c4nc5c(-c6ccc(F)cc6)cccc5[nH]4)c3n2)c1` [Compound 36, N-(5-(3-(4-(4-Fluorophenyl)-1H-benzo[d]imidazol-2-yl)-1H-pyrazolo[4,3-b]pyridin-5-yl)pyridin-3-yl)pivalamide], in the assay on IL-6 (THP-1 cells), the pEC50 is less than 5.00 and the inhibition at 10 µM is 25.7%. Further, in assay [1], the Emax turned out to be 86% and the EC50 is 30 nM. In the assay on SW480 colon cancer cells, this molecule showed a pEC50 of 5.07.

As for `Fc1ccc(-c2cccc3[nH]c(-c4n[nH]c5ccc(-c6cncc(CN7CCCC7)c6)nc45)nc23)cc1` [Compound 42, 3-(4-(4-Fluorophenyl)-1H-benzo[d]imidazol-2-yl)-5-(5-(pyrrolidin-1-ylmethyl)pyridin-3-yl)-1H-pyrazolo[4,3-b]pyridine], the pEC50 is 6.41 with IL-6 (THP-1 cells) and 6.26 in the assay on SW480 colon cancer cells. In addition, the Emax in assay [1] is 23%.

Take `O=C(Nc1cncc(-c2ccc3[nH]nc(-c4nc5c(-c6ccc(F)cc6)cccc5[nH]4)c3n2)c1)C1CCC1` [Compound 49, N-(5-(3-(4-(4-Fluorophenyl)-1H-benzo[d]imidazol-2-yl)-1H-pyrazolo[4,3-b]pyridin-5-yl)pyridin-3-yl)cyclobutanecarboxamide]: in the assay on IL-6 (THP-1 cells), the pEC50 is less than 5.00 and the inhibition at 10 µM was determined as 43.6%. Besides, in assay [1], the Emax was found to be 69% and the EC50 was found to be 30 nM. In the assay with SW480 colon cancer cells, the inhibition at 10 µM is 12.9% and the pEC50 was less than 5.00.

With `Fc1ccc(-c2cccc3[nH]c(-c4n[nH]c5ccc(-c6cncnc6)nc45)nc23)cc1` [Compound 55, 3-(4-(4-Fluorophenyl)-1H-benzo[d]imidazol-2-yl)-5-(pyrimidin-5-yl)-1H-pyrazolo[4,3-b]pyridine], in the assay with IL-6 (THP-1 cells), the pEC50 is less than 5.00 and the inhibition at 10 µM was 38.8%. Besides, in assay [1], the Emax came to 96% and the EC50 was 10 nM. In the assay on SW480 colon cancer cells, the inhibition at 10 µM is 4.1% and the pEC50 was less than 5.00.

For the molecule `Nc1cncc(-c2ccc3[nH]nc(-c4nc5c(-c6ccccc6F)cccc5[nH]4)c3n2)c1` [Compound 59, 5-(3-(4-(2-Fluorophenyl)-1H-benzo[d]imidazol-2-yl)-1H-pyrazolo[4,3-b]pyridin-5-yl)pyridin-3-amine], the pEC50 in the assay on IL-6 (THP-1 cells) was 6.31. Besides, in assay [1], the Emax was found to be 82% and the EC50 amounted to 30 nM. In the assay on SW480 colon cancer cells, this molecule showed a pEC50 of 5.79.

Take `c1cncc(-c2ccc3[nH]nc(-c4nc5c(-c6cccnc6)cccc5[nH]4)c3n2)c1` [Compound 88, 5-(Pyridin-3-yl)-3-(4-(pyridin-3-yl)-1H-benzo[d]imidazol-2-yl)-1H-pyrazolo [4,3-b]pyridine]: in the assay on IL-6 (THP-1 cells), the pEC50 was less than 5.00 and the inhibition at 10 µM was 31.8%. In addition, in assay [1], the Emax came to 58% and the EC50 is 30 nM. Moreover, the pEC50 with SW480 colon cancer cells is 5.17.

Turning to `CC(C)C(=O)Nc1cncc(-c2ccc3[nH]nc(-c4nc5c(-c6cccnc6)cccc5[nH]4)c3n2)c1` [Compound 93, N-(5-(3-(4-(Pyridin-3-yl)-1H-benzo[d]imidazol-2-yl)-1H-pyrazolo[4,3-b]pyridin-5-yl)pyridin-3-yl)isobutyramide], the pEC50 in the assay with IL-6 (THP-1 cells) and in the assay with SW480 colon cancer cells was less than 5.00 throughout. Also, the values for the inhibition at 10 µM in the assay on IL-6 (THP-1 cells) and in the assay on SW480 colon cancer cells were 42.5% and 29.9%, respectively. The Emax in assay [1] turned out to be 36%.

For the molecule `CC(C)Nc1cncc(-c2ccc3[nH]nc(-c4nc5c(-c6cccnc6)cccc5[nH]4)c3n2)c1` [Compound 96, N-Isopropyl-5-(3-(4-(pyridin-3-yl)-1H-benzo[d]imidazol-2-yl)-1H-pyrazolo [4,3-b]pyridin-5-yl)pyridin-3-amine], the results for the pEC50 in the assay on IL-6 (THP-1 cells) and in the assay on SW480 colon cancer cells were 5.76 and 5.05, respectively. For the same molecule, the Emax in assay [1] was 24%.

As for `Cc1ccncc1-c1ccc2[nH]nc(-c3nc4c(-c5ccncc5)cccc4[nH]3)c2n1` [Compound 117, 5-(4-Methylpyridin-3-yl)-3-(4-(pyridin-4-yl)-1H-benzo[d]imidazol-2-yl)-1H-pyrazolo[4,3-b]pyridine], in the assay with IL-6 (THP-1 cells), the pEC50 is less than 5.00 and the inhibition at 10 µM worked out at 51.4%. For the same molecule, the Emax in assay [1] was 45%. Moreover, in the assay on SW480 colon cancer cells, the inhibition at 10 µM amounted to 16.9% and the pEC50 was less than 5.00.

For `O=C(Cc1ccccc1)Nc1cncc(-c2ccc3[nH]nc(-c4nc5c(-c6ccncc6)cccc5[nH]4)c3n2)c1` [Compound 122, 2-Phenyl-N-(5-(3-(4-(pyridin-4-yl)-1H-benzo[d]imidazol-2-yl)-1H-pyrazolo [4,3-b]pyridin-5-yl)pyridin-3-yl)acetamide], in the assay on IL-6 (THP-1 cells), the pEC50 was less than 5.00 and the inhibition at 10 µM stood at 40.3%. Moreover, in assay [1], the Emax is 75% and the EC50 turned out to be 300 nM. In the assay with SW480 colon cancer cells, this molecule gave a pEC50 of 5.84.

`CCCC(=O)Nc1cncc(-c2ccc3[nH]nc(-c4nc5c(-c6ccncc6)cccc5[nH]4)c3n2)c1` [Compound 129, N-(5-(3-(4-(Pyridin-4-yl)-1H-benzo[d]imidazol-2-yl)-1H-pyrazolo[4,3-b]pyridin-5-yl)pyridin-3-yl)butyramide]: in the assay on IL-6 (THP-1 cells), the pEC50 is less than 5.00 and the inhibition at 10 µM is 34.9%. Besides, in assay [1], the Emax worked out at 59% and the EC50 stood at 2700 nM. In addition, in the assay with SW480 colon cancer cells, the inhibition at 10 µM is 0% and the pEC50 is less than 5.00.

Consider `CCNCc1cncc(-c2ccc3[nH]nc(-c4nc5c(-c6ccccn6)cccc5[nH]4)c3n2)c1` [Compound 146, N-((5-(3-(4-(Pyridin-2-yl)-1H-benzo[d]imidazol-2-yl)-1H-pyrazolo[4,3-b]pyridin-5-yl)pyridin-3-yl)methyl)ethanamine], for which, in the assay with IL-6 (THP-1 cells), the pEC50 is less than 5.00 and the inhibition at 10 µM was 19.5%. Besides, in assay [1], the Emax came out at 279% and the EC50 amounted to 1670 nM. Moreover, the pEC50 with SW480 colon cancer cells was 5.81.

In the assay with IL-6 (THP-1 cells), `CCC(=O)Nc1cncc(-c2ccc3[nH]nc(-c4nc5c(N6CCCCC6)cccc5[nH]4)c3n2)c1` [Compound 169, N-(5-(3-(4-(Piperidin-1-yl)-1H-benzo[d]imidazol-2-yl)-1H-pyrazolo[4,3-b]pyridin-5-yl)pyridin-3-yl)propionamide] had a pEC50 of 6.79. Moreover, in assay [1], the Emax is 66% and the EC50 turned out to be 1670 nM. Also, in the assay on SW480 colon cancer cells, the inhibition at 10 µM came to 41.4% and the pEC50 was less than 5.00.

On to `CN(C)Cc1cncc(-c2ccc3[nH]nc(-c4nc5c(N6CCCCC6)cccc5[nH]4)c3n2)c1` [Compound 181, N,N-dimethyl-1-(5-(3-(4-(piperidin-1-yl)-1H-benzo[d]imidazol-2-yl)-1H-pyrazolo[4,3-b]pyridin-5-yl)pyridin-3-yl)methanamine], for which the pEC50 was 5.31 in the assay with IL-6 (THP-1 cells) and 5.94 in the assay with SW480 colon cancer cells. Further, the Emax in assay [1] turned out to be 52%. Also, the EC50 in assay [1] worked out at 10 nM.

In the case of `CN1CCN(c2cccc3[nH]c(-c4n[nH]c5ccc(-c6cncc(N)c6)nc45)nc23)CC1` [Compound 227, 5-(3-(4-(4-Methylpiperazin-1-yl)-1H-benzo[d]imidazol-2-yl)-1H-pyrazolo [4,3-b]pyridin-5-yl)pyridin-3-amine], the pEC50 in the assay with IL-6 (THP-1 cells) is 5.08. The Emax in assay [1] amounted to 50%. Also, in the assay with SW480 colon cancer cells, the inhibition at 10 µM was determined as 18.4% and the pEC50 was less than 5.00.
